Each molecule was assayed against T1, C-terminal truncated core protein (HBV core dimer, BODIPY-FL labelled) (UniProt P03146) (assay: Biochemical capsid assembly assay (fluorescence quenching)).
T1 construct: fused on or other part: One added cysteine at position 150, labelled with BODIPY-FL maleimide; The C-terminal arginine-rich domain is absent
T1 sequence (P03146 whole entry, the tested form may be a part): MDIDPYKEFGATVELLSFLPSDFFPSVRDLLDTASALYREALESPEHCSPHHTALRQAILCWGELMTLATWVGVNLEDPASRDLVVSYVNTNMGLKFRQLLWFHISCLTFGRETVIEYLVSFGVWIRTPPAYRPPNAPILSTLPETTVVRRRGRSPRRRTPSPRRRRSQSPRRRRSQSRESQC
Protocol: Biochemical Capsid Assembly Assay
The screening for assembly effector activity was done based on a fluorescence quenching assay published by Zlotnick et al. (2007). The C-terminal truncated core protein containing 149 amino acids of the N-terminal assembly domain fused to a unique cysteine residue at position 150 and was expressed in E. coli using the pET expression system (Merck Chemicals, Darmstadt). Purification of core dimer protein was performed using a sequence of size exclusion chromatography steps. In brief, the cell pellet from 1 L BL21 (DE3) Rosetta2 culture expressing the coding sequence of core protein cloned NdeI/XhoI into expression plasmid pET21b was treated for 1 h on ice with a native lysis buffer (Qproteome Bacterial Protein Prep Kit; Qiagen, Hilden). After a centrifugation step the supernatant was precipitated during 2 h stirring on ice with 0.23 g/ml of solid ammonium sulfate. Following further centrifugation the resulting pellet was resolved in buffer A (100 mM Tris, pH 7.5; 100 mM NaCl; 2 mM DTT) and was subsequently loaded onto a buffer A equilibrated CaptoCore 700 column (GE HealthCare, Frankfurt). The column flow through containing the assembled HBV capsid was dialyzed against buffer N (50 mM NaHCO3 pH 9.6; 5 mM DTT) before urea was added to a final concentration of 3M to dissociate the capsid into core dimers for 1.5 h on ice. The protein solution was then loaded onto a 1 L Sephacryl 5300 column. After elution with buffer N core dimer containing fractions were identified by SDS-PAGE and subsequently pooled and dialyzed against 50 mM HEPES pH 7.5; 5 mM DTT. To improve the assembly capacity of the purified core dimers a second round of assembly and disassembly starting with the addition of 5 M NaCl and including the size exclusion chromatography steps described above was performed. From the last chromatography step core dimer containing fractions were pooled and stored in aliquots at concentrations between 1.5 to 2.0 mg/ml at −80° C.
Immediately before labelling the core protein was reduced by adding freshly prepared DTT in a final concentration of 20 mM. After 40 min incubation on ice storage buffer and DTT was removed using a Sephadex G-25 column (GE HealthCare, Frankfurt) and 50 mM HEPES, pH 7.5. For labelling 1.6 mg/ml core protein was incubated at 4° C. and darkness overnight with BODIPY-FL maleimide (Invitrogen, Karlsruhe) in a final concentration of 1 mM. After labelling the free dye was removed by an additional desalting step using a Sephadex G-25 column. Labelled core dimers were stored in aliquots at 4° C. In the dimeric state the fluorescence signal of the labelled core protein is high and is quenched during the assembly of the core dimers to high molecular capsid structures. The screening assay was performed in black 384 well microtiter plates in a total assay volume of 10 μl using 50 mM HEPES pH 7.5 and 1.0 to 2.0 μM labelled core protein. Each screening compound was added in 8 different concentrations using a 0.5 log-unit serial dilution starting at a final concentration of 100 μM, 31.6 μM or 10 μM, In any case the DMSO concentration over the entire microtiter plate was 0.5%. The assembly reaction was started by the injection of NaCl to a final concentration of […] which induces the assembly process to approximately 25% of the maximal quenched signal. […] after starting the reaction the fluorescence signal was measured using a Clariostar plate reader (BMG Labtech, Ortenberg) with an excitation of 477 nm and an emission of 525 nm. As 100% and 0% assembly control HEPES buffer containing 2.5 M and 0 M NaCl was used. Experiments were performed thrice in triplicates. EC50 values were calculated by non-linear regression analysis using the Graph Pad Prism 6 software (GraphPad Software, La Jolla, USA).
Molecule `CCCCNC(=O)C(=O)N1CCN(C(=O)c2cc3cc(F)ccc3[nH]2)CC1` [Example 27, N-butyl-2-(4-(5-fluoro-1H-indole-2-carbonyl)piperazin-1-yl)-2-oxoacetamide] has an IC50 of less than 5 µM. `Cc1c(F)ccc2[nH]c(C(=O)N3CCN(C(=O)C(=O)NC(C)(C)C)CC3)cc12` [Example 46, N-(tert-butyl)-2-(4-(5-fluoro-4-methyl-1H-indole-2-carbonyl)piperazin-1-yl)-2-oxoacetamide] was tested, and the IC50 was 5 to 10 µM. In the case of `CC1(NC(=O)C(=O)N2CCN(C(=O)c3cc4ccccc4[nH]3)CC2)CCOCC1` [Example 39, 2-(4-(1H-indole-2-carbonyl)piperazin-1-yl)-N-(4-methyltetrahydro-2H-pyran-4-yl)-2-oxoacetamide], the IC50 is reported as less than 5 µM. `CNC(=O)C1(CNC(=O)C(=O)N2CCN(C(=O)c3cc4ccccc4[nH]3)CC2)CCC1` [Example 22, 1-((2-(4-(1H-indole-2-carbonyl)piperazin-1-yl)-2-oxoacetamido)methyl)-N-methylcyclobutane-1-carboxamide] was tested, and the IC50 was less than 100 µM. Work on `CC(C)(CCCO)NC(=O)C(=O)N1CCN(C(=O)c2cc3ccccc3[nH]2)CC1` [Example 68, N-(5-hydroxy-2-methylpentan-2-yl)-2-[4-(1H-indole-2-carbonyl)piperazin-1-yl]-2-oxoacetamide] yielded an IC50 of less than 5 µM. Work on `CCC(C)(C)NC(=O)C(=O)N1CCN(C(=O)c2cc3ccccc3[nH]2)CC1` [Example 67, 2-[4-(1H-indole-2-carbonyl)piperazin-1-yl]-N-(2-methylbutan-2-yl)-2-oxoacetamide] yielded an IC50 of less than 5 µM. Work on `C[C@@H]1CN(C(=O)C(=O)NC(C)(C)C)CCN1C(=O)c1cc2ccccc2[nH]1` [Example 50, (R)-2-(4-(1H-indole-2-carbonyl)-3-methylpiperazin-1-yl)-N-(tert-butyl)-2-oxoacetamide] yielded an IC50 of less than 5 µM. For `O=C(N[C@H]1CC[C@@H](O)CC1)C(=O)N1CCN(C(=O)c2cc3ccccc3[nH]2)CC1` [Example 16, 2-(4-(1H-indole-2-carbonyl)piperazin-1-yl)-N-((1s,4s)-4-hydroxycyclohexyl)-2-oxoacetamide], the IC50 was 5 to 10 µM. In the case of `O=C1CC2(CC(CNC(=O)C(=O)N3CCN(C(=O)c4cc5ccccc5[nH]4)CC3)C2)N1` (centres unmarked) [Example 19, 2-(4-(1H-indole-2-carbonyl)piperazin-1-yl)-2-oxo-N-((2-oxo-1-azaspiro[3.3]heptan-6-yl)methyl)acetamide], the IC50 is reported as less than 100 µM. For `C[C@@H]1CN(C(=O)C(=O)NC(C)(C)C)[C@@H](C)CN1C(=O)c1cc2ccccc2[nH]1` [Example 48, N-tert-butyl-2-[(2S,5R)-4-(1H-indole-2-carbonyl)-2,5-dimethylpiperazin-1-yl]-2-oxoacetamide], the IC50 was less than 5 µM. `O=C(NCC1(O)CC1)C(=O)N1CCN(C(=O)c2cc3ccccc3[nH]2)CC1` [Example 18, 2-(4-(1H-indole-2-carbonyl)piperazin-1-yl)-N-((1-hydroxycyclopropyl)methyl)-2-oxoacetamide] gave an IC50 of less than 100 µM. Molecule `O=C(N[C@H]1C[C@H](O)C1)C(=O)N1CCN(C(=O)c2cc3ccccc3[nH]2)CC1` [Example 17, 2-(4-(1H-indole-2-carbonyl)piperazin-1-yl)-N-((1 r,3 r)-3-hydroxycyclobutyl)-2-oxoacetamide] has an IC50 of 5 to 10 µM. For `NC(=O)C1(CNC(=O)C(=O)N2CCN(C(=O)c3cc4ccccc4[nH]3)CC2)CC(F)(F)C1` [Example 21, 1-((2-(4-(1H-indole-2-carbonyl)piperazin-1-yl)-2-oxoacetamido)methyl)-3,3-difluorocyclobutane-1-carboxamide], the IC50 was 5 to 10 µM. Work on `CC(C)(C)NC(=O)C(=O)N1CCN(C(=O)c2cc3cc(F)c(Cl)cc3[nH]2)CC1` [Example 45, N-(tert-butyl)-2-(4-(6-chloro-5-fluoro-1H-indole-2-carbonyl)piperazin-1-yl)-2-oxoacetamide] yielded an IC50 of 5 to 10 µM. With `C#CCNC(=O)C(=O)N1CCN(C(=O)c2cc3ccccc3[nH]2)CC1` [Example 15, 2-(4-(1H-indole-2-carbonyl)piperazin-1-yl)-2-oxo-N-(prop-2-yn-1-yl)acetamide] the IC50 was less than 5 µM. In the case of `C[C@H]1CN(C(=O)C(=O)NC(C)(C)C)CCN1C(=O)c1cc2ccccc2[nH]1` [Example 49, (S)-2-(4-(1H-indole-2-carbonyl)-3-methylpiperazin-1-yl)-N-(tert-butyl)-2-oxoacetamide], the IC50 is reported as less than 100 µM. `O=C1CCC(CNC(=O)C(=O)N2CCN(C(=O)c3cc4ccccc4[nH]3)CC2)N1` (centres unmarked) [Example 14, 2-[4-(1H-indole-2-carbonyl)piperazin-1-yl]-2-oxo-N-[(5-oxopyrrolidin-2-yl)methyl]acetamide] was tested, and the IC50 was less than 100 µM. Molecule `C[C@@H](NC(=O)C(=O)N1CCN(C(=O)c2cc3ccccc3[nH]2)CC1)C(F)(F)F` [Example 38, (R)-2-(4-(1H-indole-2-carbonyl)piperazin-1-yl)-2-oxo-N-(1,1,1-trifluoropropan-2-yl)acetamide] has an IC50 of less than 5 µM. For `CC1(NC(=O)C(=O)N2CCN(C(=O)c3cc4ccccc4[nH]3)CC2)CCCCCC1` [Example 66, 2-[4-(1H-indole-2-carbonyl)piperazin-1-yl]-N-(1-methylcycloheptyl)-2-oxoacetamide], the IC50 was 5 to 10 µM. In the case of `O=C(NC1CCOCC1)C(=O)N1CCN(C(=O)c2cc3ccccc3[nH]2)CC1` [Example 40, 2-(4-(1H-indole-2-carbonyl)piperazin-1-yl)-2-oxo-N-(tetrahydro-2H-pyran-4-yl)acetamide], the IC50 is reported as 5 to 10 µM. `O=C(N[C@H]1CC[C@H](O)CC1)C(=O)N1CCN(C(=O)c2cc3ccccc3[nH]2)CC1` [Example 33, 2-(4-(1H-indole-2-carbonyl)piperazin-1-yl)-N-((1r,4r)-4-hydroxycyclohexyl)-2-oxoacetamide] was tested, and the IC50 was less than 100 µM. `C[C@H](O)CNC(=O)C(=O)N1CCN(C(=O)c2cc3ccccc3[nH]2)CC1` [Example 36, (S)-2-(4-(1H-indole-2-carbonyl)piperazin-1-yl)-N-(2-hydroxypropyl)-2-oxoacetamide] showed an IC50 of less than 5 µM. `COCC1(NC(=O)C(=O)N2CCN(C(=O)c3cc4ccccc4[nH]3)CC2)CCC1` [Example 41, 2-(4-(1H-indole-2-carbonyl)piperazin-1-yl)-N-(1-(methoxymethyl)cyclobutyl)-2-oxoacetamide] was tested, and the IC50 was less than 5 µM. `O=C(NC1CCCCCC1)C(=O)N1CCN(C(=O)c2cc3ccccc3[nH]2)CC1` [Example 70, N-cycloheptyl-2-[4-(1H-indole-2-carbonyl)piperazin-1-yl]-2-oxoacetamide] showed an IC50 of 5 to 10 µM. Molecule `CC(C)(C)NC(=O)C(=O)N1CCN(C(=O)c2cc3c(F)cc(F)cc3[nH]2)CC1` [Example 43, N-(tert-butyl)-2-(4-(4,6-difluoro-1H-indole-2-carbonyl)piperazin-1-yl)-2-oxoacetamide] has an IC50 of less than 5 µM. For `CC(C)(C)NC(=O)C(=O)N1CCCN(C(=O)c2cc3ccccc3[nH]2)CC1` [Example 51, 2-(4-(1H-indole-2-carbonyl)-1,4-diazepan-1-yl)-N-(tert-butyl)-2-oxoacetamide], the IC50 was less than 100 µM. For `Cc1cccc2[nH]c(C(=O)N3CCN(C(=O)C(=O)NC(C)(C)C)CC3)cc12` [Example 44, N-(tert-butyl)-2-(4-(4-methyl-1H-indole-2-carbonyl)piperazin-1-yl)-2-oxoacetamide], the IC50 was less than 5 µM. Work on `CC(C)(CC(F)(F)F)NC(=O)C(=O)N1CCN(C(=O)c2cc3ccccc3[nH]2)CC1` [Example 69, 2-[4-(1H-indole-2-carbonyl)piperazin-1-yl]-2-oxo-N-(4,4,4-trifluoro-2-methylbutan-2-yl)acetamide] yielded an IC50 of less than 5 µM. With `C[C@H](NC(=O)C(=O)N1CCN(C(=O)c2cc3ccccc3[nH]2)CC1)C(F)(F)F` [Example 37, 2-[4-(1H-indole-2-carbonyl)piperazin-1-yl]-2-oxo-N-[(2S)-1,1,1-trifluoropropan-2-yl]acetamide] the IC50 was less than 5 µM.

Source: patent publication US20220227737A1, “NOVEL OXALYL PIPERAZINES ACTIVE AGAINST THE HEPATITIS B VIRUS (HBV)” (AiCuris GmbH & Co. KG, priority 2019, published 2022)
